This is an account of results in ChEMBL document CHEMBL1155752, “Isolation and structure of korolkoside, a bis-iridoid glucoside from Lonicera korolkovii” (J Nat Prod, 2001).

Series [1] has as its system Mus musculus. The series can be described thus: Acute toxicity in ddY mouse at 2 mg/mouse, ip assessed as death after 12 hrs. As to conditions: in vivo. Type of series: organism-based.
Series [2] relates to Mus musculus. Put plainly: Acute toxicity in ddY mouse at 38 mg/mouse, ip assessed as death after 12 hrs. The following applies: in vivo. Type of series: organism-based.

For the compound `C=C[C@H]1[C@H](O[C@@H]2O[C@H](CO)[C@@H](O)[C@H](O)[C@H]2O)OC=C(C(=O)OC)[C@H]1C[C@@H]1OC[C@H]2O[C@@H](O[C@@H]3OC=C(C(=O)OC)[C@@H](CC(OC)OC)[C@H]3C=C)[C@H](O)[C@@H](O)[C@@H]2O1` [KOROLKOSIDE], in the series on Mus musculus [1], the Activity result is “Non-toxic”.

Take `C=C[C@H]1[C@H](O[C@@H]2O[C@H](CO)[C@@H](O)[C@H](O)[C@H]2O)OC=C(C(=O)OC)[C@H]1CC(OC)OC` [SECOLOGANIN DIMETHYL ACETAL]: in the series on Mus musculus [2], the Activity result is “Non-toxic”.
